Assay results: US6919306B2, “Method of skin care” (Yaizu Suisankagaku Industry Co. Ltd., priority 1999, dated 2005)
Marks after values point to notes of the source that are not given here.

Legend:
[1] = test system: females having a tendency of xeroderma and rough skin; assay: Dermatologic examination and doctor's questions, double blind long-term ingestion study; format: in vivo, human; details: for Face, Cosmetic dermatitis, average score / Face, Spread of cosmetics, average score / Whole body, Desquamation, average score / Whole body, Erosion, average score / Whole body, Flushing, average score / Whole body, Papula, average score / Whole body, Pruritus, average score / Whole body, Vesicle, average score / Face, Dessication, average score / Face, Flushing, average score / General observation, average score / Whole body, Dessication, average score: NAG 1,000 mg/day oral
Description: To 22 females usually having a tendency of xeroderma and rough skin (average age: 25.5±10.7), a double blind long-term ingestion study was carried out in the following manners provided that a […] were given to a control group.
NAG-containing tablets-administered group (NAG group, n=11): Tablets prepared similarly as in Example 1 as described below (NAG amount: 200 mg/tablet), were ingested at a rate of 5 tablets/day (NAG 1,000 mg/day, as a daily dose).
Placebo-administered group (Placebo group, n=11): Tablets prepared similarly provided that lactose was used instead of NAG, were ingested at a rate of 5 tablets/day.
The ingestion period was 8 weeks in each group. The inspection was in principle carried out just before the start of ingestion, 4 weeks after the start of ingestion, and just before the completion of ingestion (8 weeks after the start of ingestion).
In the observation of whole body, 4 ranks evaluation (0: no symptom, 1: slight, 2: medium, 3: severe) was conducted with respect to pruritus, desiccation, flushing, erosion, desquamation, papula, vesicle and tumefaction. In the observation of face, 4 ranks evaluation was similarly conducted with respect to cosmetic dermatitis, desiccation, flushing and spread of cosmetics. Further, amelioration of general symptom including the observations of the whole body and face, was evaluated as a general observation. These evaluations were conducted by a plurality of doctors designated by Japan Dermatologic Science Society. The results are shown in Table 3 (average value of each score of each group).

[2] = NAG kinetics study with 14C labelled NAG; format: in vivo; details: rats, single forced oral 250 mg/kg of body weight
Description: A mixture of ^14C labelled NAG (1 st-position carbon atom-labelled product: manufactured by Amasham Life Science Co.) and unlabelled NAG (the one prepared in PREPARATION EXAMPLE 1) was given to rats by single forced oral administration (250 mg/kg of body weight) for in vivo kinetics study. […] About 60% of the administered NAG was utilized as an energy source and excreted as CO2 to expiration. Further, about 20% was excreted to urine and stool.

Wister rats (SPF) = assay: Acute toxic test of NAG; format: in vivo; details: rat
Description: To each of five males and five females of Wister rats (SPF), NAG was given by a single oral administration in an amount of 5,000 mg per kg of body weight. After the administration, these rats were bred for 14 days and observed, and no death was recognized. It was also recognized that the 50% lethal dose (LD50) to the rats was at least 5,000 mg per kg of body weight.

[3] = after 4 weeks, score 0-3, p < 0.05
[4] = after 8 weeks, score 0-3, p < 0.05

SMILES: CC(=O)N[C@H]1C(O)O[C@H](CO)[C@@H](O)[C@@H]1O (stereo partly drawn) [NAG, N-acetylglucosamine]
- Face, Cosmetic dermatitis, average score ([1]; after 4 weeks, score 0-3): 1.00
- Face, Spread of cosmetics, average score ([1]; after 4 weeks, score 0-3): 1.33
- Whole body, Desquamation, average score ([1]; after 4 weeks, score 0-3): 1.33
- Whole body, Erosion, average score ([1]; after 4 weeks, score 0-3): 1.00
- Whole body, Flushing, average score ([1]; after 4 weeks, score 0-3): 0.80
- Whole body, Papula, average score ([1]; after 4 weeks, score 0-3): 1.50
- Whole body, Pruritus, average score ([1]; after 4 weeks, score 0-3): 0.90
- Whole body, Vesicle, average score ([1]; after 4 weeks, score 0-3): 2.00
- Face, Dessication, average score ([1]; after 4 weeks, score 0-3, p < 0.01): 1.18**
- Face, Flushing, average score [1, 3]: 1.10*
- General observation, average score [1, 3]: 1.27*
- Whole body, Dessication, average score [1, 3]: 1.36*
- Face, Cosmetic dermatitis, average score ([1]; after 8 weeks, score 0-3): 1.33
- Whole body, Desquamation, average score ([1]; after 8 weeks, score 0-3): 1.00
- Whole body, Erosion, average score ([1]; after 8 weeks, score 0-3): 0.00
- Whole body, Flushing, average score ([1]; after 8 weeks, score 0-3): 0.40
- Whole body, Papula, average score ([1]; after 8 weeks, score 0-3): 1.50
- Whole body, Pruritus, average score ([1]; after 8 weeks, score 0-3): 0.60
- Whole body, Vesicle, average score ([1]; after 8 weeks, score 0-3): 2.00
- Face, Dessication, average score [1, 4]: 1.00*
- Face, Flushing, average score [1, 4]: 1.10*
- Face, Spread of cosmetics, average score [1, 4]: 0.83*
- General observation, average score [1, 4]: 1.09*
- Whole body, Dessication, average score [1, 4]: 1.00*
- Face, Dessication, average score ([1]; before ingestion, score 0-3): 2.00
- Face, Flushing, average score ([1]; before ingestion, score 0-3): 1.80
- Face, Spread of cosmetics, average score ([1]; before ingestion, score 0-3): 1.83
- General observation, average score ([1]; before ingestion, score 0-3): 1.82
- Whole body, Desquamation, average score ([1]; before ingestion, score 0-3): 1.33
- Whole body, Dessication, average score ([1]; before ingestion, score 0-3): 2.09
- Whole body, Erosion, average score ([1]; before ingestion, score 0-3): 2.00
- Whole body, Flushing, average score ([1]; before ingestion, score 0-3): 1.40
- Whole body, Papula, average score ([1]; before ingestion, score 0-3): 1.00
- Whole body, Pruritus, average score ([1]; before ingestion, score 0-3): 1.40
- Whole body, Vesicle, average score ([1]; before ingestion, score 0-3): 1.00
- Face, Cosmetic dermatitis, average score ([1]; before ingestion, score 0 no symptom to 3 severe): 1.00
- symptom of whole body: "dessication" ([1]; NAG group, 1,000 mg/day oral, 8 weeks, also significant in placebo group): significant improvements
- symptoms of face: "dessication", "flushing" and "spread of cosmetics" ([1]; NAG group, 1,000 mg/day oral, 8 weeks, placebo no significance): significant improvements
- general observation ([1]; NAG group, 1,000 mg/day oral, 8 weeks, placebo no significant improvement): significant improvements
- absorption after oral administration [2]: rapidly absorbed
- share excreted to urine and stool [2]: about 20%
- time at which average concentration of radioactivity in blood reached the maximum value [2]: 4 h
- residual transferred to tissues (e.g. cartilaginous and fatty tissues) ([2]; autoradiography and tissue radioactivity): about 20%
- 50% lethal dose (LD50) (Wister rats (SPF); both, Wister, in vivo, po, 14 days): at least 5,000 mg per kg of body weight
- safety on oral administration (Wister rats (SPF); orally administered 5 g per kg of body weight): safety is confirmed
